Three substances from paper PMC10458859, “Stem Cell Bioengineering with Bioportides: Inhibition of Planarian Head Regeneration with Peptide Mimetics of Eyes Absent Proteins” (Pharmaceutics, 2023) can be followed below.

Series [1] can be described thus: Circular dichroism secondary structure analysis. Conditions: CD; for difference in percentage α-helicity in the presence of lipid membranes: DMPC and DMPS vesicles, lipid:peptide 100 to 1. It is filed as physicochemical. The procedure: Secondary structure analyses of Djeya1 peptides were performed on a Jasco J-815 CD spectrometer (Jasco Ltd., Heckmondwike, UK). Peptides (0.01 mg mL^−^1) were dissolved in either 1 × phosphate buffered saline (PBS) at pH 7.4 or in a 2,2,2-tetrafluoroethanol (TFE) and 1 × PBS mixture (50.0% v/v). All buffers were prepared using ultra-pure water (resistivity 18 MΩ cm), PBS and TFE (Scientific Laboratory Supplies Ltd., Nottingham, UK). CD experiments were also performed at peptide:lipid ratios of 1:100, whilst 1,2-dimyristoyl-sn-glycero-3-phosphatidylcholine (DMPC) and 1,2-dimyristoyl-sn-glycero-3-phosphatidylserine (DMPS) (5 mg mL^−^1) (Avanti Polar Lipids, Alabaster, AL, USA) were dissolved separately in chloroform (HPLC grade, VWR International Ltd Lutterworth, UK) and dried under N2 gas. The lipid film was rehydrated using 1 × PBS, pH 7.5 for 1 h or until the solution was no longer turbid. The solution then underwent 5 cycles of freeze thaw before the lipid/peptide samples were prepared by the addition of peptide stock solution (final concentration 0.01 mg mL^−^1). Far UV CD spectra (180 nm to 260 nm) were recorded at 20 °C using 0.5 nm intervals, a bandwidth of 1 nm, a scan speed of 50 nm min^−1 and a 10 mm path-length cell. Ten accumulations were selected to average a single spectrum. Samples without peptide were prepared for background spectral subtraction. Data, baseline-subtracted and averaged CD, were analyzed using the Dichroweb server CDSSTR and SELCON3 reference dataset 3 [23, 24, 25]. To generate percentage structure averages, these analyses were repeated four times.

The subject of series [2] is decapitated S. mediterranea. The series is described as follows: Anterior pole regeneration and eye development assay. The class given is in vivo, Schmidtea mediterranea. Conditions: for influence upon planarian head regeneration: 25 μM exogenous application to decapitated S. mediterranea, monitored over 8 days; for response to light: 25 μM in PAM after amputation, day 8; for response to light / regeneration of the anterior pole, including the eye spots: re-treated day 4; for regeneration of the anterior pole, including the eye spots: 25 μM in PAM immediately after transverse amputation, observed day 8, compared to PAM alone; for animals that achieved full regeneration / animals that had commenced the development of photoreceptors within the unpigmented blastema: n = 9; for animals that had commenced the development of photoreceptors within the unpigmented blastema: 25 μM, day 9 post amputation. The method, then:
Adult planaria, 4–6 mm in length, and selected for experimentation were starved 5 days prior to amputation. Transverse amputation of planarian heads, post-auricle and pre-pharynx, induced blastema formation in the trunk section, leading to eye regeneration and head remodeling.
Post amputation, planaria were immediately treated with exogenously added Djeya1 analogues in 35 mm diameter × 10 mm depth culture dishes (VWR International Ltd., Lutterworth, UK) to a final volume of 4 mL PAM and maintained at 20 °C. PAM, containing Djeya1 analogues, was replenished 4 days post amputation. […]

Series [3] deals with U373MG cells. The series is described as follows: Quantitative peptide uptake, U373MG. The class given is cell-based. Conditions: TAMRA-labelled peptides 1, 2.5, 5 μM, 1 h, 37 °C, lysate fluorescence 544/590 nm, two experiments in triplicate. The procedure:
(§1) U373MG and U251 cells were maintained as above and then transferred to 6-well plates and grown to 80% confluence. Cells were washed and maintained in phenol red-free DMEM and subsequently treated with TAMRA-conjugated Djeya1 analogues at final concentrations of 1 μM, 2.5 μM, and 5 μM for 1 h in culture conditions as above. Cells were washed four times, detached with 300 μL of 1% (w/v) trypsin (without phenol red) at 37 °C, collected by centrifugation, and lysed in 300 μL 0.1 M NaOH for 2 h on ice. A total of 250 μL of each sample cell lysate was transferred to a black 96-well plate and analysed using a Thermo Fischer Scientific (Loughborough, UK) Fluoroskan Ascent FL fluorescence spectrophotometer (λAbs 544 nm/λEm 590 nm).

In series [4] the test system is U251 cells. The series is described as follows: Quantitative peptide uptake, U251. It is filed as cell-based. Conditions: 1 h, 37 °C; for rank order of uptake efficacy: U251, TAMRA-labelled peptides 1, 2.5, 5 μM, lysate fluorescence 544/590 nm, two experiments in triplicate. The method, then:
as §1

[5] abbreviates: 50% (v/v) TFE/PBS pH 7.4, peptide 0.01 mg mL-1, 20 °C.
Setting [6] is: 50% (v/v) TFE/PBS pH 7.4, peptide 0.01 mg mL-1, 20 °C, Dichroweb, analyses repeated four times.
Setting [7] is: DMPC vesicles, lipid:peptide 100 to 1, PBS, peptide 0.01 mg mL-1, 20 °C.
[8] abbreviates: DMPS vesicles, lipid:peptide 100 to 1, PBS, peptide 0.01 mg mL-1, 20 °C.
Where [9] appears, read: PBS pH 7.4, peptide 0.01 mg mL-1, 20 °C, Dichroweb CDSSTR/SELCON3, analyses repeated four times.
Where [10] appears, read: PBS pH 7.4, peptide 0.01 mg mL-1, 20 °C, Dichroweb, analyses repeated four times.
Where [11] appears, read: 25 μM treatment, 30 days post amputation, in PAM.

[ ]: non-standard residue; d: D form. Aib = CC(C)(N)C(=O)O

Consider “H-RKLAFRYRRIKELYNSYR-NH2 [Djeya1, octadecapeptide CPP mimicking the α5 helix of the Eya domain of eyes absent proteins]”, for which the Unordered in series [1] (setting [5]) amounted to 20.00 ± 1.41%; in series [1] (setting [7]), 22.00 ± 0.00%; in series [1] (setting [8]), 20.00 ± 0.00%; in series [1] (setting [10]) it was 20.00 ± 1.73%. The ß-Strand in series [1] (setting [5]) came to 27.55 ± 3.53%; in series [1] (setting [8]), 26.00 ± 1.28%; in series [1] (setting [10]) it was 30.33 ± 0.58%. Further, the ß-Turns turned out to be 7.00 ± 0.00% in series [1] (setting [5]), 8.00 ± 0.0% in series [1] (setting [7]), 8.00 ± 0.00% in series [1] (setting [8]) and 6.67 ± 0.58% in series [1] (setting [10]). Besides, the α-helix in series [1] (setting [6]) is listed as 45.50 ± 4.94%; in series [1] (setting [7]), 44.00 ± 1.53%; in series [1] (setting [8]), 47.00 ± 1.24%; in series [1] (setting [9]), 43.00 ± 1.73%. The “influence upon planarian head regeneration” value in series [2] was “inactive”.

“H-RKLAFRYRRIKELYN[Aib]YR-NH2 (SMILES CC[C@H](C)[C@H](NC(=O)[C@H](CCCNC(=N)N)NC(=O)[C@H](CCCNC(=N)N)NC(=O)[C@H](Cc1ccc(O)cc1)NC(=O)[C@H](CCCNC(=N)N)NC(=O)[C@H](Cc1ccccc1)NC(=O)[C@H](C)NC(=O)[C@H](CC(C)C)NC(=O)[C@H](CCCCN)NC(=O)[C@@H](N)CCCNC(=N)N)C(=O)N[C@@H](CCCCN)C(=O)N[C@@H](CCC(=O)O)C(=O)N[C@@H](CC(C)C)C(=O)N[C@@H](Cc1ccc(O)cc1)C(=O)N[C@@H](CC(N)=O)C(=O)NC(C)(C)C(=O)N[C@@H](Cc1ccc(O)cc1)C(=O)N[C@@H](CCCNC(=N)N)C(N)=O) [[Aib^16]Djeya1, Aib-substituted Djeya1 analogue, position 16; bioportide]”: the “rank order of uptake efficacy” value in series [3] is “[Aib^16]Djeya1 = [Aib^10]Djeya1 > [Aib^13]Djeya1”. In series [1] (setting [5]), this substance came in with an Unordered of 19.50 ± 0.71%, a ß-Strand of 27.50 ± 0.71% and a ß-Turns of 7.00 ± 0.00%. The same substance gave a α-helix in series [1] (setting [6]) of 46.00 ± 1.41%. Also, the “difference in percentage α-helicity in the presence of lipid membranes” value in series [1] is listed as “No difference”. Further, in series [1] (setting [7]), the Unordered was 22.00 ± 0.71%, the ß-Strand is on record as 30.00 ± 0.71%, the ß-Turns came to 7.00 ± 0.71% and the α-helix is 42.00 ± 0.71%. In series [1] (setting [8]), this substance displayed an Unordered of 22.00 ± 0.71%, a ß-Strand of 30.00 ± 0.71%, a ß-Turns of 8.00 ± 0.71% and a α-helix of 42.00 ± 0.00%. Further, the α-helix in series [1] (setting [9]) was determined as 39.67 ± 4.04%. In series [1] (setting [10]), the Unordered is recorded as 21.00 ± 1.00%, the ß-Strand worked out at 31.67 ± 2.87% and the ß-Turns came out at 7.33 ± 0.58%. In series [4], the “rank order of uptake efficacy” value was “[Aib^13]Djeya1 > [Aib^16]Djeya1 > [Aib^10]Djeya1”. Moreover, in series [2], the “influence upon planarian head regeneration” value is listed as “delay head regeneration”; the response to light result is listed as “unresponsive to light”; the “regeneration of the anterior pole, including the eye spots” value is on record as “absent”; the “animals that had commenced the development of photoreceptors within the unpigmented blastema” value came out at 67%. Further, the “animals that achieved full regeneration” value in series [2] (setting [11]) is listed as “all”.

In the case of “H-RKLAFRYRRIKE[Aib]YNSYR-NH2 (SMILES CC[C@H](C)[C@H](NC(=O)[C@H](CCCNC(=N)N)NC(=O)[C@H](CCCNC(=N)N)NC(=O)[C@H](Cc1ccc(O)cc1)NC(=O)[C@H](CCCNC(=N)N)NC(=O)[C@H](Cc1ccccc1)NC(=O)[C@H](C)NC(=O)[C@H](CC(C)C)NC(=O)[C@H](CCCCN)NC(=O)[C@@H](N)CCCNC(=N)N)C(=O)N[C@@H](CCCCN)C(=O)N[C@@H](CCC(=O)O)C(=O)NC(C)(C)C(=O)N[C@@H](Cc1ccc(O)cc1)C(=O)N[C@@H](CC(N)=O)C(=O)N[C@@H](CO)C(=O)N[C@@H](Cc1ccc(O)cc1)C(=O)N[C@@H](CCCNC(=N)N)C(N)=O) [[Aib^13]Djeya1, Aib-substituted Djeya1 analogue, position 13; bioportide]”, the “rank order of uptake efficacy” value in series [3] is “[Aib^16]Djeya1 = [Aib^10]Djeya1 > [Aib^13]Djeya1”. In addition, in series [1] (setting [5]), the Unordered worked out at 22.33 ± 1.50%, the ß-Strand came to 31.00 ± 2.08% and the ß-Turns stood at 7.33 ± 0.05%. Further, in series [1] (setting [6]), the α-helix worked out at 40.00 ± 2.64%. In addition, in series [1] (50% TFE/PBS (v/v) compared with PBS), the “effect of 50% TFE/PBS on α-helical structure” value was “did not enhance”. The “difference in percentage α-helicity in the presence of lipid membranes” value in series [1] is “No difference”. For the same substance, in series [1] (setting [7]), the Unordered was 22.00 ± 0.71%, the ß-Strand came out at 30.00 ± 0.71%, the ß-Turns is given as 8.00 ± 0.71% and the α-helix was determined as 42.00 ± 0.71%. In series [1] (setting [8]), this substance gave an Unordered of 21.00 ± 0.71%, a ß-Strand of 30.00 ± 0.71%, a ß-Turns of 7.00 ± 0.71% and a α-helix of 42.00 ± 0.00%. In addition, the α-helix in series [1] (setting [9]) was found to be 40.67 ± 1.52%. Further, in series [1] (setting [10]), the Unordered is reported as 22.33 ± 1.52%, the ß-Strand stood at 30.00 ± 1.00% and the ß-Turns turned out to be 7.00 ± 0.00%. Further, the “uptake efficacy into U251 cells compared with U373MG cells” value in series [4] (TAMRA-labelled peptide) is “increased uptake efficacy”. For the same substance, in series [4], the “rank order of uptake efficacy” value is “[Aib^13]Djeya1 > [Aib^16]Djeya1 > [Aib^10]Djeya1”. Moreover, in series [2], the “influence upon planarian head regeneration” value was “delay head regeneration”; the response to light result is “unresponsive to light”; the “regeneration of the anterior pole, including the eye spots” value is “absent”; the “animals that had commenced the development of photoreceptors within the unpigmented blastema” value amounted to 67%. In series [2] (setting [11]), the “animals that remained unregenerated and in stasis” value was 33%; the “animals that achieved full regeneration” value came to 67%.
